According to patent US20250129078A1, “ERBB2 INHIBITORS” (Cogent Biosciences, Inc., priority 2023, published 2025):
Where a name gives a salt, the structure may show the parent alone.

Molecular target: EGFR WT (Homo sapiens (Human), UniProt P00533)
Test: ErbB enzyme assay (CisBio HTRF-KinEASE-TK), EGFR WT
Format: biochemical
Conditions: ATP at Km (25 μM), 1 h incubation
Method: In vitro enzyme assays based on CisBio HTRF-KinEASE-TK technology were used to determine compound potencies. […]. Compounds were prepared as a three-fold serial dilution in DMSO and added to the assay to give the appropriate final concentration. After a 1 h incubation at ambient temperature, the reaction was quenched by adding 10 μL of 62.5 nM Sa-XL665 and 0.25×TK-Ab-Cryptate in HTRF detection buffer (all from CisBio, part of cat #62TKOPEC). After another 1 h incubation at ambient temperature, the extent of substrate phosphorylation was determined using a PerkinElmer EnVision multimode plate reader via time-resolved fluorescence dual wavelength detection. The percent of control (POC) was calculated using the ratio of emission at […] to the emission at 620 nm. One hundred POC was determined using DMSO only controls (no test compounds present) and zero POC was determined using pre-quenched controls reactions. A 4-parameter logistic equation was fit to the POC values as a function of the test compound concentration and the IC50 value was determined as the point where the curve crossed 50 POC.

EGFR WT, sequence (P00533 25-1210): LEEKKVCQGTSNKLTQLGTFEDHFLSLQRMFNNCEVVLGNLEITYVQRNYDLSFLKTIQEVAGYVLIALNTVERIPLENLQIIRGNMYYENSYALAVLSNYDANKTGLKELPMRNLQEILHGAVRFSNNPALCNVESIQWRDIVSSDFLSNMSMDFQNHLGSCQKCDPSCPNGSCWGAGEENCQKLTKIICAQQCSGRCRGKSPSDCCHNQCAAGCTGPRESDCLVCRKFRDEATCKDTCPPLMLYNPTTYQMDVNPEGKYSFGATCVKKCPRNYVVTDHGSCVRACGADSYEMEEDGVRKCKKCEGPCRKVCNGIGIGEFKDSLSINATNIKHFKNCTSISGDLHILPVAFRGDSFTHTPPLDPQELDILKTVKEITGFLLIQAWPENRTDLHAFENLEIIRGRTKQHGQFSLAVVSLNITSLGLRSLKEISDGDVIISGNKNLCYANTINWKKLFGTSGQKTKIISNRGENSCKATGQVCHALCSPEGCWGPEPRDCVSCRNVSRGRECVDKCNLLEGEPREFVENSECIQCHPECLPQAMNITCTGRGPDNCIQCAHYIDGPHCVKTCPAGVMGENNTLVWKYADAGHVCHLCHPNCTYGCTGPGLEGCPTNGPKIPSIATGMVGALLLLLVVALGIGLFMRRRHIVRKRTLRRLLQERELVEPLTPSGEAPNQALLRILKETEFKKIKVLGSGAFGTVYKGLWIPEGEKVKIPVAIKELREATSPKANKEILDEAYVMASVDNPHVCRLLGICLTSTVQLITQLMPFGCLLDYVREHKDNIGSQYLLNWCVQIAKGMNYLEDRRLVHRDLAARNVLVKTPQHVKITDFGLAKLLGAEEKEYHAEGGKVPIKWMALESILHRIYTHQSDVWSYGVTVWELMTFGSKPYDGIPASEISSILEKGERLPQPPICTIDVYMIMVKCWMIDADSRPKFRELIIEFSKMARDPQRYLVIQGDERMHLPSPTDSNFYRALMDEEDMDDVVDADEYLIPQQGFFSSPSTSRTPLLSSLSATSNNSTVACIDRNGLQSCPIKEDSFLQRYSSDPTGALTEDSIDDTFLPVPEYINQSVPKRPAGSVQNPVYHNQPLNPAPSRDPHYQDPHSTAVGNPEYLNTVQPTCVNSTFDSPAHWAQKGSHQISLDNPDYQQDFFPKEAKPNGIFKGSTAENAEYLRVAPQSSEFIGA

| IC50 | Compound |
| --- | --- |
| 100 to 500 nM | C=CC(=O)N1CCN(c2ccc3ncnc(Nc4ccc(Oc5cc6nnn(C)c6c(F)c5C)c(C)c4F)c3n2)C[C@H]1C [Compound 293, (R)-1-(4-(4-((2-fluoro-4-((7-fluoro-1,6-dimethyl-1H-benzo[d][1,2,3]triazol-5-yl)oxy)-3-methylphenyl)amino)pyrido[3,2-d]pyrimidin-6-yl)-2-methylpiperazin-1-yl)prop-2-en-1-one] |
| 100 to 500 nM | C=CC(=O)N[C@H]1C[C@H](C)CN(c2ccc3ncnc(Nc4ccc(Oc5ccc6c(c5)nnn6C)c(C)c4F)c3n2)C1 (single isomer, unassigned) [Compound 339] |
| 100 to 500 nM | C=CC(=O)N[C@H]1CN(c2ccc3ncnc(Nc4ccc(Oc5ccc6c(c5)nnn6C)c(C)c4F)c3n2)CC[C@@H]1C (single isomer, unassigned) [Compound 346] |
| < 50 nM | C=CC(=O)N1CC2CC1CN2c1ccc2ncnc(Nc3ccc(Oc4ccc5c(c4)nnn5C)c(C)c3)c2n1 (centres unmarked) [Compound 81, 1-(5-(4-((3-methyl-4-((1-methyl-1H-benzo[d][1,2,3]triazol-5-yl)oxy)phenyl)amino)pyrido[3,2-d]pyrimidin-6-yl)-2,5-diazabicyclo[2.2.1]heptan-2-yl)prop-2-en-1-one] |
| 500 to 1000 nM | C=CC(=O)N[C@H]1CCCN(c2ncc3ncnc(Nc4ccc(Oc5ccc6c(c5)nnn6C)c(C)c4)c3n2)C1 [Compound 126, (S)-N-(1-(8-((3-methyl-4-((1-methyl-1H-benzo[d][1,2,3]triazol-5-yl)oxy)phenyl)amino)pyrimido [5,4-d]pyrimidin-2-yl)piperidin-3-yl)acrylamide] |
| 100 to 500 nM | C=CC(=O)N1CCC(Oc2ncc3ncnc(Nc4ccc(Oc5ccn6ncnc6c5)c(C)c4)c3n2)CC1 [Compound 376, 1-(4-((8-((4-([1,2,4]triazolo[1,5-a]pyridin-7-yloxy)-3-methylphenyl)amino)pyrimido[5,4-d]pyrimidin-2-yl)oxy)piperidin-1-yl)prop-2-en-1-one] |
| ≥ 1000 nM | C=CC(=O)N[C@@H]1CCCN(c2ncc3ncnc(Nc4ccc(Oc5ccc6c(c5)nnn6C)c(C)c4F)c3n2)CC1 [Compound 172, (R)-N-(1-(8-((2-fluoro-3-methyl-4-((1-methyl-1H-benzo[d][1,2,3]triazol-5-yl)oxy)phenyl)amino)pyrimido[5,4-d]pyrimidin-2-yl)azepan-4-yl)acrylamide] |
| ≥ 1000 nM | C=C(F)C(=O)N1CCN(c2ncc3ncnc(Nc4ccc(Oc5ccc6c(c5)nnn6C)c(C)c4)c3n2)C[C@@H]1COC [Compound 193, (R)-2-fluoro-1-(2-(methoxymethyl)-4-(8-((3-methyl-4-((1-methyl-1H-benzo[d][1,2,3]triazol-5-yl)oxy)phenyl)amino)pyrimido[5,4-d]pyrimidin-2-yl)piperazin-1-yl)prop-2-en-1-one] |
| 50 to 100 nM | C=CC(=O)N1CCN(c2ncc3ncnc(Nc4ccc(Oc5ccc6c(c5)nnn6C)c(C)c4)c3n2)C[C@H]1COC [Compound 120, (S)-1-(2-(methoxymethyl)-4-(8-((3-methyl-4-((1-methyl-1H-benzo[d][1,2,3]triazol-5-yl)oxy)phenyl)amino)pyrimido[5,4-d]pyrimidin-2-y1)piperazin-1-yl)prop-2-en-1-one] |
| 500 to 1000 nM | C=CC(=O)N1CCN(c2ncc3ncnc(Nc4ccc(Oc5cc(F)c6c(c5)nnn6C)c(C)c4F)c3n2)C[C@@H]1C1CC1 [Compound 192, (S)-1-(2-cyclopropyl-4-(8-((2-fluoro-4-((7-fluoro-1-methyl-1H-benzo[d][1,2,3]triazol-5-yl)oxy)-3-methylphenyl)amino)pyrimido[5,4-d]pyrimidin-2-y1)piperazin-1-yl)prop-2-en-1-one] |
| 100 to 500 nM | C=CC(=O)N1CCN(c2ncc3ncnc(Nc4ccc(Oc5cc6nnn(C)c6cc5C)c(C)c4)c3n2)CC1 [Compound 136, 1-(4-(8-((4-((1,6-dimethyl-1H-benzo[d][1,2,3]triazol-5-y1)oxy)-3-methylphenyl)amino)pyrimido[5,4-d]pyrimidin-2-yl)piperazin-1-yl)prop-2-en-1-one] |
| < 50 nM | C=CC(=O)N1CCN(c2ncc3ncnc(Nc4ccc(Oc5cc(F)c6c(c5)ncn6C)c(C)c4F)c3n2)CC1 [Compound 111, 1-(4-(8-((2-fluoro-4-((7-fluoro-1-methyl-1H-benzo[d]imidazol-5-yl)oxy)-3-methylphenyl)amino)pyrimido[5,4-d]pyrimidin-2-yl)piperazin-1-y1)prop-2-en-1-one] |
| 100 to 500 nM | C=CC(=O)N1C2CCC1CN(c1ncc3ncnc(Nc4ccc(Oc5ccc6c(c5)nnn6C)c(C)c4)c3n1)C2 [Compound 47, 1-(3-(8-((3-methyl-4-((1-methyl-1H-benzo[d][1,2,3]triazol-5-yl)oxy)phenyl)amino)pyrimido[5,4-d]pyrimidin-2-yl)-3,8-diazabicyclo[3.2.1]octan-8-yl)prop-2-en-1-one] |
| 50 to 100 nM | C=C(F)C(=O)N1CC=C(c2ccc3ncnc(Nc4ccc(Oc5ccc6c(c5)nnn6C)c(C)c4)c3n2)C1 [Compound 403, 2-fluoro-1-(3-(4-((3-methyl-4-((1-methyl-1H-benzo[d][1,2,3]triazol-5-yl)oxy)phenyl)amino)pyrido[3,2-d]pyrimidin-6-yl)-2,5-dihydro-1H-pyrrol-1-yl)prop-2-en-1-one] |
| 50 to 100 nM | C=CC(=O)N1CCN(c2ccc3ncnc(Nc4ccc(Oc5ccc6c(c5)ncn6C(F)F)c(C)c4F)c3c2)CC1 [Compound 375, 1-(4-(4-((4-((1-(difluoromethyl)-1H-benzo[d]imidazol-5-yl)oxy)-2-fluoro-3-methylphenyl)amino)quinazolin-6-yl)piperazin-1-yl)prop-2-en-1-one] |
| 500 to 1000 nM | C=CC(=O)N1CCN(c2ccc3ncnc(Nc4ccc(Oc5ccc6c(c5)nnn6C(F)F)c(C)c4F)c3n2)CC1(C)C [Compound 322, 1-(4-(4-((4-((1-(difluoromethyl)-1H-benzo[d][1,2,3]triazol-5-yl)oxy)-2-fluoro-3-methylphenyl)amino)pyrido[3,2-d]pyrimidin-6-yl)-2,2-dimethylpiperazin-1-yl)prop-2-en-1-one] |
| 100 to 500 nM | C=CC(=O)N1CCN(c2ncc3ncnc(Nc4ccc(Oc5ccc6c(c5)nnn6C)c(F)c4F)c3n2)CC1 [Compound 10, 1-(4-(8-((2,3-difluoro-4-((1-methyl-1H-benzo[d][1,2,3]triazol-5-yl)oxy)phenyl)amino)pyrimido[5,4-d]pyrimidin-2-yl)piperazin-1-yl)prop-2-en-1-one] |
| 500 to 1000 nM | C=C(F)C(=O)N1C2CCC1CN(c1ccc3ncnc(Nc4ccc(Oc5ccc6c(c5)nnn6C)c(C)c4)c3n1)C2 [Compound 87, 2-fluoro-1-(3-(4-((3-methyl-4-((1-methyl-1H-benzo[d][1,2,3]triazol-5-yl)oxy)phenyl)amino)pyrido[3,2-d]pyrimidin-6-yl)-3,8-diazabicyclo[3.2.1]octan-8-yl)prop-2-en-1-one] |
| < 50 nM | C=CC(=O)N1CC2CCC1CN2c1ncc2ncnc(Nc3ccc(Oc4ccc5c(c4)nnn5C)c(C)c3)c2n1 (centres unmarked) [Compound 62, 1-(5-(8-((3-methyl-4-((1-methyl-1H-benzo[d][1,2,3]triazol-5-yl)oxy)phenyl)amino)pyrimido[5,4-d]pyrimidin-2-yl)-2,5-diazabicyclo[2.2.2]octan-2-yl)prop-2-en-1-one] |
| 100 to 500 nM | C=CC(=O)N1C2C=C(c3ccc4ncnc(Nc5ccc(Oc6ccc7c(c6)nnn7C)c(C)c5)c4n3)CC1COC2 (centres unmarked) [Compound 408, 1-(7-(4-((3-methyl-4-((1-methyl-1H-benzo[d][1,2,3]triazol-5-yl)oxy)phenyl)amino)pyrido[3,2-d]pyrimidin-6-yl)-3-oxa-9-azabicyclo[3.3.1]non-6-en-9-yl)prop-2-en-1-one trifluoroacetate] |
| 100 to 500 nM | C=CC(=O)N1CCN(c2ccc3ncnc(Nc4ccc(Oc5cc6nnn(C)c6cc5F)c(C)c4)c3n2)C[C@H]1C [Compound 262, (R)-1-(4-(4-((4-((6-fluoro-1-methyl-1H-benzo[d][1,2,3]triazol-5-yl)oxy)-3-methylphenyl)amino)pyrido[3,2-d]pyrimidin-6-yl)-2-methylpiperazin-1-yl)prop-2-en-1-one] |
| 50 to 100 nM | C=CC(=O)N1CCN(c2ncc3ncnc(Nc4ccc(Oc5ccc6c(c5)ncn6C(F)F)c(C)c4)c3n2)CC1 [Compound 30, 1-(4-(8-((4-((1-(difluoromethyl)-1H-benzo[d]imidazol-5-yl)oxy)-3-methylphenyl)amino)pyrimido[5,4-d]pyrimidin-2-y1)piperazin-1-yl)prop-2-en-1-one] |
| 50 to 100 nM | C=CC(=O)N[C@H]1C[C@@H](C)CN(c2ncc3ncnc(Nc4ccc(Oc5ccc6c(c5)nnn6C)c(C)c4F)c3n2)C1 (single isomer, unassigned) [Compound 204] |
| ≥ 1000 nM | C=CC(=O)N[C@@H]1C[C@@H](C)CN(c2ncc3ncnc(Nc4ccc(Oc5ccc6c(c5)nnn6C)c(C)c4F)c3n2)C1 (single isomer, unassigned) [Compound 201] |
| 100 to 500 nM | C=CC(=O)N1CCN(c2ncc3ncnc(Nc4ccc(Oc5cc6nnn(C)c6c(C)c5F)c(C)c4)c3n2)C[C@H]1C [Compound 236, (R)-1-(4-(8-((4-((6-fluoro-1,7-dimethyl-1H-benzo[d][1,2,3]triazol-5-yl)oxy)-3-methylphenyl)amino)pyrimido[5,4-d]pyrimidin-2-yl)-2-methylpiperazin-1-yl)prop-2-en-1-one] |
| 100 to 500 nM | C=CC(=O)N1CCN(c2ncc3ncnc(Nc4ccc(Oc5ccc6c(c5)nnn6C(F)(F)F)c(C)c4)c3n2)C[C@H]1C [Compound 195, (R)-1-(2-methyl-4-(8-((3-methyl-4-((1-(trifluoromethyl)-1H-benzo[d][1,2,3]triazol-5-yl)oxy)phenyl)amino)pyrimido[5,4-d]pyrimidin-2-yl)piperazin-1-yl)prop-2-en-1-one] |
